test: Antagonist activity at human P2Y12 receptor assessed as inhibition of ADP-induced platelet-rich plasma aggregation by turbidimetric method

Row | SMILES | IC50 [µM]
1 | CCOC(=O)N1CCN(C(=O)[C@H](CCC(=O)O)NC(=O)c2cc(OCCN)cc(-c3ccccc3)n2)CC1 [(4S)4-({[4-(2-Aminoethoxy)6-phenylpyridin-2-yl]carbonyl}-amino)5-[4-(ethoxycarbonyl)iperazin-1-yl]-5-oxopentanoicAcid] | 7.5
2 | CCCCCOC(=O)N1CCN(C(=O)[C@H](CCC(=O)O)NC(=O)c2cc(OCCO)cc(-c3ccccc3)n2)CC1 [(4S)4-({[4-(2-Hydroxyethoxy)6-phenylpyridin-2-yl]carbonyl}-amino)5-oxo-5-{4-[(pentyloxy)carbonyl]piperazin-1-yl}pentanoicAcid] | 11.5
3 | CCCCCOC(=O)N1CCN(C(=O)[C@H](CCC(=O)O)NC(=O)c2cc(OCCOC)cc(-c3ccccc3)n2)CC1 [(4S)4-({[4-(2-Methoxyethoxy)6-phenylpyridin-2-yl]carbonyl}amino)5-oxo-5-{4-[(pentyloxy)carbonyl]piperazin-1-yl}pentanoic Acid] | 4.3
4 | CCCCCOC(=O)N1CCN(C(=O)[C@H](CCC(=O)O)NC(=O)c2cc(N3CCC(CN)CC3)cc(-c3ccccc3)n2)CC1 [(4S)4-[({4-[4-(Aminomethyl)piperidin-1-yl]-6-phenylpyridin-2-yl}carbonyl)amino]-5-oxo-5-{4-[(pentyloxy)carbonyl]piperazin-1-yl}pentanoic Acid] | 0.77
5 | CCCCCOC(=O)N1CCN(C(=O)[C@H](CCC(=O)O)NC(=O)c2cc(N3CCC(COC)CC3)cc(-c3ccccc3)n2)CC1 [(4S)4-[({4-[4-(Methoxymethyl)piperidin-1-yl]-6-phenylpyridin-2-yl}carbonyl)amino]-5-oxo-5-{4-[(pentyloxy)carbonyl]piperazin-1-yl}pentanoic Acid] | 3.9
6 | CCCCOc1cc(C(=O)N[C@@H](CCC(=O)O)C(=O)N2CCN(C(=O)OCC)CC2)nc(-c2ccccc2)c1 [(4S)4-{[(4-Butoxy-6-phenylpyridin-2-yl)carbonyl]amino}-5-[4-(ethoxycarbonyl)iperazin-1-yl]-5-oxopentanoic Acid] | 33.9
7 | CCCCCOC(=O)N1CCN(C(=O)[C@H](CCC(=O)O)NC(=O)c2cc(OCCCC)cc(-c3ccccc3)n2)CC1 [(4S)4-{[(4-Butoxy-6-phenylpyridin-2-yl)carbonyl]amino}-5-oxo-5-{4-[(pentyloxy)carbonyl]piperazin-1-yl}pentanoic Acid] | 28.4
8 | CCCOC(=O)N1CCN(C(=O)[C@H](CCC(=O)O)NC(=O)c2cccc(-c3ccccc3)n2)CC1 [(4S)5-Oxo-4-{[(6-phenylpyridin-2-yl)carbonyl]amino}-5-[4-(propoxycarbonyl)iperazin-1-yl]pentanoic Acid] | 62
9 | CCCCCOC(=O)N1CCN(C(=O)[C@H](CCC(=O)O)NC(=O)c2cc(OC3CCNCC3)cc(-c3ccccc3)n2)CC1 [(4S)5-Oxo-5-{4-[(pentyloxy)carbonyl]piperazin-1-yl}-4-({[6-phenyl-4-(piperidin-4-yloxy)yridin-2-yl]carbonyl}amino)entanoicAcid] | 0.55
10 | Cc1cccc(N2CCN(C(=O)[C@H](CCC(=O)O)NC(=O)c3cccc(-c4ccccc4)n3)CC2)c1 [(4S)5-[4-(3-Methylphenyl)piperazin-1-yl]-5-oxo-4-{[(6-phenylpyridin-2-yl)carbonyl]amino}pentanoicAcid] | > 100
11 | CCCCOC(=O)N1CCN(C(=O)[C@H](CCC(=O)O)NC(=O)c2cc(OCCOC)cc(-c3ccccc3)n2)CC1 [(4S)5-[4-(Butoxycarbonyl)iperazin-1-yl]-4-({[4-(2-methoxyethoxy)6-phenylpyridin-2-yl]carbonyl}amino)5-oxopentanoicAcid] | 4.4
12 | CCCCOC(=O)N1CCN(C(=O)[C@H](CCC(=O)O)NC(=O)c2cc(OCCCC)cc(-c3ccccc3)n2)CC1 [(4S)5-[4-(Butoxycarbonyl)iperazin-1-yl]-4-{[(4-butoxy-6-phenylpyridin-2-yl)carbonyl]amino}-5-oxopentanoic Acid] | 26.9
13 | CCOC(=O)N1CCN(C(=O)[C@H](CCC(=O)O)NC(=O)c2cc(OCCO)cc(-c3ccccc3)n2)CC1 [(4S)5-[4-(Ethoxycarbonyl)iperazin-1-yl]-4-({[4-(2-hydroxyethoxy)6-phenylpyridin-2-yl]carbonyl}amino)5-oxopentanoicAcid] | 7.6
14 | CCOC(=O)N1CCN(C(=O)[C@H](CCC(=O)O)NC(=O)c2cc(OCCCO)cc(-c3ccccc3)n2)CC1 [(4S)5-[4-(Ethoxycarbonyl)iperazin-1-yl]-4-({[4-(3-hydroxypropoxy)6-phenylpyridin-2-yl]carbonyl}amino)5-oxopentanoic Acid] | 9
15 | CCOC(=O)N1CCN(C(=O)[C@H](CCC(=O)O)NC(=O)c2cc(N3CCC(O)CC3)cc(-c3ccccc3)n2)CC1 [(4S)5-[4-(Ethoxycarbonyl)piperazin-1-yl]-4-({[4-(4-hydroxypiperidin-1-yl)6-phenylpyridin-2-yl]carbonyl}amino)5-oxopentanoicAcid] | 9.8
16 | CCOC(=O)N1CCN(C(=O)[C@H](CCC(=O)O)NC(=O)c2cc(NC)cc(-c3ccccc3)n2)CC1 [(4S)5-[4-(Ethoxycarbonyl)piperazin-1-yl]-4-({[4-(methylamino)6-phenylpyridin-2-yl]carbonyl}amino)5-oxopentanoic Acid] | 45

Row | SMILES | IC50 [µM]
17 | CCOC(=O)N1CCN(C(=O)[C@H](CCC(=O)O)NC(=O)c2cc(N3CCC(COC)CC3)cc(-c3ccccc3)n2)CC1 [(4S)5-[4-(Ethoxycarbonyl)piperazin-1-yl]-4-[({4-[4-(methoxymethyl)piperidin-1-yl]-6-phenylpyridin-2-yl}carbonyl)amino]-5-oxopentanoic Acid] | 9.9
18 | CCOC(=O)N1CCN(C(=O)[C@H](CCC(=O)O)NC(=O)c2cc(N3CCC(N4CCCC4)CC3)cc(-c3ccccc3)n2)CC1 [(4S)5-[4-(Ethoxycarbonyl)piperazin-1-yl]-5-oxo-4-({[6-phenyl-4-(4-pyrrolidin-1-ylpiperidin-1-yl)pyridin-2-yl]carbonyl}amino)pentanoic Acid] | 2
19 | CCCCCCCCOC(=O)N1CCN(C(=O)[C@H](CCC(=O)O)NC(=O)c2cccc(-c3ccccc3)n2)CC1 [(4S)5-{4-[(Octyloxy)carbonyl]piperazin-1-yl}-5-oxo-4-{[(6-phenylpyridin-2-yl)carbonyl]amino}pentanoic Acid] | > 100
20 | CCOC(=O)N1CCN(C(=O)[C@H](CCC(=O)O)NC(=O)c2cc(OC(CC)C(=O)N(CC)CC)cc(-c3ccccc3)n2)CC1 (stereo partly drawn) [(4S)-4-(4-(1-(diethylamino)-1-oxobutan-2-yloxy)-6-phenylpicolinamido)-5-(4-(ethoxycarbonyl)piperazin-1-yl)-5-oxopentanoic acid] | 3
21 | Cc1cccc(N2CCN(C(=O)[C@H](CCC(=O)O)NC(=O)c3cc(-c4ccccc4)cc(-c4ccccc4)n3)CC2)c1 [(S)-4-(4,6-diphenylpicolinamido)-5-oxo-5-(4-m-tolylpiperazin-1-yl)pentanoic acid] | > 100
22 | CCOC(=O)N1CCN(C(=O)[C@H](CCC(=O)O)NC(=O)c2cc(NCCN(C)C)cc(-c3ccccc3)n2)CC1 [(S)-4-(4-(2-(dimethylamino)ethylamino)-6-phenylpicolinamido)-5-(4-(ethoxycarbonyl)piperazin-1-yl)-5-oxopentanoic acid] | 36
23 | CC(C)OC(=O)N1CCN(C(=O)[C@H](CCC(=O)O)NC(=O)c2cc(OCCO)cc(-c3ccccc3)n2)CC1 [(S)-4-(4-(2-hydroxyethoxy)-6-phenylpicolinamido)-5-(4-(isopropoxycarbonyl)piperazin-1-yl)-5-oxopentanoic acid] | 25.6
24 | CCOC(=O)N1CCN(C(=O)[C@H](CCC(=O)O)NC(=O)c2cc(OCCCN)cc(-c3ccccc3)n2)CC1 [(S)-4-(4-(3-aminopropoxy)-6-phenylpicolinamido)-5-(4-(ethoxycarbonyl)piperazin-1-yl)-5-oxopentanoic acid] | 3.8
25 | CCOC(=O)N1CCN(C(=O)[C@H](CCC(=O)O)NC(=O)c2cc(N3CCN(CCN(C)C)CC3)cc(-c3ccccc3)n2)CC1 [(S)-4-(4-(4-(2-(dimethylamino)ethyl)piperazin-1-yl)-6-phenylpicolinamido)-5-(4-(ethoxycarbonyl)piperazin-1-yl)-5-oxopentanoic acid] | 2.3
26 | NCC1CCN(c2cc(C(=O)N[C@@H](CCC(=O)O)C(=O)N3CCN(C(=O)OCCC4CCCC4)CC3)nc(-c3ccccc3)c2)CC1 [(S)-4-(4-(4-(aminomethyl)piperidin-1-yl)-6-phenylpicolinamido)-5-(4-((2-cyclopentylethoxy)carbonyl)piperazin-1-yl)-5-oxopentanoic acid] | 14.1
27 | CCOC(=O)N1CCN(C(=O)[C@H](CCC(=O)O)NC(=O)c2cc(N3CCC(CN)CC3)cc(-c3ccccc3)n2)CC1 [(S)-4-(4-(4-(aminomethyl)piperidin-1-yl)-6-phenylpicolinamido)-5-(4-(ethoxycarbonyl)piperazin-1-yl)-5-oxopentanoic acid] | 3.3
28 | CCCCCCOC(=O)N1CCN(C(=O)[C@H](CCC(=O)O)NC(=O)c2cc(N3CCC(CN)CC3)cc(-c3ccccc3)n2)CC1 [(S)-4-(4-(4-(aminomethyl)piperidin-1-yl)-6-phenylpicolinamido)-5-(4-(hexyloxycarbonyl)piperazin-1-yl)-5-oxopentanoic acid] | 1.6
29 | CCOC(=O)N1CCN(C(=O)[C@H](CCC(=O)O)NC(=O)c2cc(N3CCC(N)CC3)cc(-c3ccccc3)n2)CC1 [(S)-4-(4-(4-aminopiperidin-1-yl)-6-phenylpicolinamido)-5-(4-(ethoxycarbonyl)piperazin-1-yl)-5-oxopentanoic acid] | 2.8
30 | CCCCCOC(=O)N1CCN(C(=O)[C@H](CCC(=O)O)NC(=O)c2cc(N3CCC(O)CC3)cc(-c3ccccc3)n2)CC1 [(S)-4-(4-(4-hydroxypiperidin-1-yl)-6-phenylpicolinamido)-5-oxo-5-(4-(pentyloxycarbonyl)piperazin-1-yl)pentanoic acid] | 2.4
31 | CCOC(=O)N1CCN(C(=O)[C@H](CCC(=O)O)NC(=O)c2cc(NCc3ccccc3)cc(-c3ccccc3)n2)CC1 [(S)-4-(4-(benzylamino)-6-phenylpicolinamido)-5-(4-(ethoxycarbonyl)piperazin-1-yl)-5-oxopentanoic acid] | 81
32 | CCOC(=O)N1CCN(C(=O)[C@H](CCC(=O)O)NC(=O)c2cc(OCc3ccccc3)cc(-c3ccccc3)n2)CC1 [(S)-4-(4-(benzyloxy)-6-phenylpicolinamido)-5-(4-(ethoxycarbonyl)piperazin-1-yl)-5-oxopentanoic acid] | 31

Reference: BindingDB's records for doi:10.1016/j.bmcl.2009.06.075 (Pfizer, 2009)
